The results in this text go back to patent US20240062782A1, “NONLINEAR LIGHT ABSORPTION MATERIAL, RECORDING MEDIUM, METHOD FOR RECORDING INFORMATION, AND METHOD FOR READING INFORMATION” (Panasonic Intellectual Property Management Co., Ltd., priority 2021, published 2024).

Read-outs that look alike come from different tables or passages of the source.

Format in all cases: physicochemical
Series [1] is described as follows: Stability for light having a wavelength in a short wavelength region. The settings on record: short wavelength region (390-420 nm); optical characteristics could not be measured. The procedure:
(§1) The compounds of Examples and Comparative Examples were measured for optical characteristics by the following methods. […] Measurement of two-photon absorption cross-section

The nature of series [2]: Solubility in the solvent when preparing samples for optical characteristics. The settings on record: measurement solvent; sample could not be prepared. As to the method:
as §1

The nature of series [3]: Measurement of two-photon absorption cross-section by the Z-scan method, light of 405 nm. The settings on record: light of wavelength 405 nm; for Two-photon absorption cross-section σ: titanium sapphire pulsed laser second harmonic, 80 fs, 1 kHz. The source says: The two-photon absorption cross-section of the compound A for light having a wavelength of 405 nm may be higher than 1 GM or 10 GM or more. The upper limit of the two-photon absorption cross-section of the compound A is not particularly limited and is, for example, 1000 GM. The two-photon absorption cross-section can be measured by, for example, the Z-scan method described in J. Opt. Soc. Am. B, 2003, Vol. 20, p. 529. The Z-scan method is broadly used as a method for measuring a nonlinear optical constant. In the Z-scan method, a measurement sample is moved along the irradiation direction of a laser beam near the focal point where the beam is focused. On this occasion, the change in the amount of light permeated through the measurement sample is recorded. In the Z-scan method, the power density of incident light changes depending on the position of the measurement sample. Accordingly, when the measurement sample performs nonlinear light absorption, if the measurement sample is located near the focal point of the laser beam, the amount of the transmitted light is attenuated. The two-photon absorption cross-section can be calculated by fitting the change of the amount of transmitted light to a theoretical curve predicted by the intensity of incident light, the thickness of the measurement sample, the concentration of the compound A in the measurement sample, and so on.
The compounds of Examples and Comparative Examples were measured for the two-photon absorption cross-section for light having a wavelength of 405 nm. The measurement of the two-photon absorption cross-section was performed using the Z-scan method described in J. Opt. Soc. Am. B, 2003, Vol. 20, p. 529. As the light source for measuring the two-photon absorption cross-section, a titanium sapphire pulsed laser was used. Specifically, each sample was irradiated with the second harmonic of the titanium sapphire pulsed laser. The pulse width of the laser was 80 fs. The repetition frequency of the laser was 1 kHz. The average power of the laser was changed within a range of 0.01 mW or more and 0.08 mW or less. The light from the laser was light having a wavelength of 405 nm. […] As described above, the two-photon absorption cross-sections of the compounds of Examples 1 and 2 and the compounds of Comparative Examples 1 and 4 to 6 were measured.

Series [4] can be described thus: Measurement of molar absorption coefficient at 405 nm (JIS K0115:2004). The settings on record: wavelength 405 nm; compound concentration 100 to 500 mmol/L in solvent. The text has this:
The molar absorption coefficient of the compound A for light having a wavelength of 405 nm may be 100 mol^−1·L·cm^−1 or less, 10 mol^−1·L·cm^−1 or less, 1 mol^−1·L·cm^−1 or less, or 0.1 mol^−1·L·cm^−1 or less. The lower limit of the molar absorption coefficient of the compound A is not particularly limited and is, for example, 0.00001 mol^−1·L·cm^−1. The molar absorption coefficient can be measured by, for example, a method in accordance with the provision of Japanese Industrial Standards (JIS) K0115:2004. The measurement of molar absorption coefficient uses a light source that irradiates light with a photon density to hardly cause two-photon absorption by the compound A. Furthermore, in the measurement of molar absorption coefficient, the concentration of the compound A is adjusted to 100 mmol/L or more and 500 mmol/L or less. This concentration is very high compared to the concentration in a measurement test of the molar absorption coefficient of a light absorption peak. The molar absorption coefficient can be used as an index of one-photon absorption.
The compounds of Examples and Comparative Examples were measured for the molar absorption coefficient by a method in accordance with the provision of JIS K0115:2004. Specifically, first, as a measurement sample, a solution in which a compound was dissolved in a solvent was prepared. The concentration of the compound in the solution was appropriately adjusted within a range of 100 mmol/L or more and 500 mmol/L or less according to the absorbance at a wavelength of 405 nm of the compound as the target for measurement. Then, the absorption spectrum of the measurement sample was measured. The absorbance at a wavelength of 405 nm was read from the obtained spectrum. The molar absorption coefficient was calculated based on the concentration of the compound in the measurement sample and the optical path length of the cell used for the measurement. As described above, the molar absorption coefficients of the compounds of Examples 1 and 2 and the compounds of Comparative Examples 1 and 4 to 6 were measured.

The nature of series [5]: Measurement of fluorescence internal quantum yield (absolute PL quantum yield measuring apparatus). The settings on record: for Fluorescence quantum yield Φf: in chloroform or tetrahydrofuran, excitation at one-photon absorption peak, measured 350-650 nm; for Fluorescence property: stated in words. The text has this: The compound A also tends to emit fluorescent light. The wavelength of fluorescent light emitted by the compound A may be 405 nm or more and 660 nm or less and, in some cases, may be 300 nm or more and 650 nm or less. The quantum yield Φf of fluorescence in the compound A may be 0.05 or more, 0.1 or more, or 0.5 or more. The upper limit of the quantum yield Φf of fluorescence of the compound A is not particularly limited and is, for example, 0.99. In the present specification, the “quantum yield” specifically means internal quantum yield. The quantum yield of fluorescence can be measured by, for example, a commercially available absolute PL quantum yield measuring apparatus.
The compounds of Examples and Comparative Examples were measured for fluorescence internal quantum yield. The measurement sample was prepared by dissolving a compound in a chloroform (CLF) solvent or a tetrahydrofuran (THF) solvent. In the measurement, an absolute PL quantum yield measuring apparatus (C9920-02, manufactured by Hamamatsu Photonics K.K.) was used. The excitation wavelength was set to the peak wavelength of the one-photon absorption of the compound. The measurement wavelength was appropriately adjusted within a range of 350 nm or more and 650 nm or less so as not to overlap with the absorption wavelength band of the compound. As a reference, the solvent used for dissolving the compound was used. As described above, the fluorescence quantum yields of the compounds of Examples 1 and 2 and the compounds of Comparative Examples 1 and 4 to 6 were measured.

A short description of series [6]: Solubility in chloroform. The settings on record: chloroform as solvent. The source says:
Unsubstituted truxene is a hydrocarbon compound that is nonpolar and has a high planarity. Unsubstituted truxene corresponds to the compound of the above formula (1) in which R^1 to R^6 are hydrogen atoms. In the present specification, the unsubstituted truxene may be simply called truxene. In truxene, […] stacking of the molecules is likely to occur, and the solubility in a solvent or resin monomer tends to be low. For example, when chloroform is used as the solvent, the solubility of truxene is about several mmol/L. When the concentration of truxene in a material is high, truxene molecules come close to each other and are assembled in various forms. Consequently, multiple new levels are formed at positions with energies lower than the lowest one-photon-allowed state of truxene itself. Accordingly, tailing of a peak derived from one-photon absorption can be verified by measuring the one-photon absorption spectrum of the material including truxene at a high concentration. In contrast, in the compound A represented by the formula (1) in which R^1 to R^6 are hydrocarbon groups, it tends to suppress the formation of assembly of compound molecules without substantially changing the size of the π C electron conjugated system of truxene. […]

For `c1ccc2c(c1)[nH]c1c2c2[nH]c3ccccc3c2c2[nH]c3ccccc3c12` [Comparative Example 3, 10,15-dihydro-5H-5,10,15-triaza-diindeno[1,2-a:1′,2′-c]fluorene], the “Stability for light having a wavelength in a short wavelength region” value in series [1] was “low stability”.
As to `O=c1c2ccccc2c2c1c1c3ccccc3c(=O)c1c1c3ccccc3c(=O)c21` [Comparative Example 2, 5H-diindeno[1,2-a:1′,2′-c]fluorene-5,10,15-trione], the “Solubility in the solvent (sample for measuring optical characteristics)” value in series [2] was “low solubility”.
Consider `c1ccc2c(c1)Cc1c-2c2c(c3c1-c1ccccc1C3)-c1ccccc1C2` [Comparative Example 1, 10,15-dihydro-5H-diindeno[1,2-a:1′,2′-c]fluorene], for which the “Ratio σ/ε” value in series [3] (σ in GM over ε in mol^−1·L·cm^−1) is 8. In series [4], the “Molar absorption coefficient ε” value is 24 L/mol/cm. Also, the “Fluorescence quantum yield Φf” value in series [5] is listed as 0.1. Also, in series [6], the solubility entry is on record as “about several”.
Regarding `CC1(C)c2ccccc2-c2c1c1c(c3c2C(C)(C)c2ccccc2-3)C(C)(C)c2ccccc2-1` [Example 1, 10,15-dihydro-5,5,10,10,15,15-hexamethyl-5H-diindeno[1,2-a:1′,2′-c]fluorene], in series [3], the “Two-photon absorption cross-section σ” value came to 40 GM. In addition, in series [4], the “Molar absorption coefficient ε” value was 0.04 L/mol/cm. Moreover, in series [5], the “Fluorescence quantum yield Φf” value was found to be 0.1 and the Fluorescence property entry is on record as “had a fluorescence property”. Besides, the solubility in series [6] (organic solvent or mixture, read-out: Solubility) was ≥ 100 mM.
On to `C(#Cc1c(C#Cc2ccccc2)c(C#Cc2ccccc2)c(C#Cc2ccccc2)c(C#Cc2ccccc2)c1C#Cc1ccccc1)c1ccccc1` [Comparative Example 4, Hexakis(phenylethynyl)benzene], for which, in series [3], the “Two-photon absorption cross-section σ” value came to 23000 GM. The “Molar absorption coefficient ε” value in series [4] was 2730 L/mol/cm.
As to `OC(C#Cc1ccc(N(c2ccc(C#CC(O)(c3ccccc3)c3ccccc3)cc2)c2ccc(C#CC(O)(c3ccccc3)c3ccccc3)cc2)cc1)(c1ccccc1)c1ccccc1` [Comparative Example 6], the “Two-photon absorption cross-section σ” value in series [3] worked out at 380 GM. Moreover, the “Molar absorption coefficient ε” value in series [4] was found to be 70 L/mol/cm. Besides, the “Fluorescence quantum yield Φf” value in series [5] was 0.3.
As for `CCC1(CC)c2ccccc2-c2c1c1c(c3c2C(CC)(CC)c2ccccc2-3)C(CC)(CC)c2ccccc2-1` [Example 2, 10,15-dihydro-5,5,10,10,15,15-hexaethyl-5H-diindeno[1,2-a:1′,2′-c]fluorene], in series [3], the “Two-photon absorption cross-section σ” value is recorded as 43 GM. The “Molar absorption coefficient ε” value in series [4] is 0.08 L/mol/cm. In series [5], the “Fluorescence quantum yield Φf” value came out at 0.1 and the Fluorescence property entry is recorded as “had a fluorescence property”.
As for `COc1cc(-c2ccc(-c3ccc(C(=O)c4ccc(OCCOCCOC(C)=O)c(OCCOCCOC(C)=O)c4)cc3)c(OC)c2)ccc1-c1ccc(C(=O)c2ccc(OCCOCCOC(C)=O)c(OCCOCCOC(C)=O)c2)cc1` [Comparative Example 5], the “Two-photon absorption cross-section σ” value in series [3] is given as 570 GM. Besides, the “Molar absorption coefficient ε” value in series [4] stood at 35 L/mol/cm. The “Fluorescence quantum yield Φf” value in series [5] was determined as 0.
